We go through 59 compounds from patent US20240293579A1, “Composition Comprising Trim31 and Rhbdf2 for Treatment of NAFLD/NASH” (CHONGQING MEIPULAN TECHNOLOGY CO., LTD, priority 2021, published 2024).

Structures can show the parent of a compound that is named as a salt.

One assay has as its system TRIM31 mRNA. Description: TRIM31 mRNA expression by RT-qPCR in PA/OA-induced L02 cells. The assay is classed as cell-based, human. The conditions noted are these: 100 μmol/L compound; PA/OA-induced L02 cells; RT-qPCR. The protocol:
Palmitic acid/oleic acid (PA/OA) was used to induce the decrease of TRIM31 mRNA expression in human hepatocyte L02 cells. The cells were divided into control group and drug group. The drug group was treated with a concentration of 100 μmol/L compound, and the expression level of TRIM31 mRNA was detected by RT-qPCR. The expression level of TRIM31 mRNA in the drug group divided by that in the control group (Qdrug/Qctrl) was used to evaluate the ability of the compounds to promote TRIM31 expression. […]
(In general: In qPCR the cycle at which signal appears reflects the starting amount.)
For the compound Catechin, the “Qdrug/Qctrl (TRIM31 mRNA expression level, drug group divided by control group)” value was 3.21 fold. The same measure, in the same setting: in the case of `CC1(C)[C@@H](O[C@H]2O[C@H](C(=O)O)[C@@H](O)[C@H](O)[C@H]2O[C@@H]2O[C@H](C(=O)O)[C@@H](O)[C@H](O)[C@H]2O)CC[C@]2(C)[C@H]3C(=O)C=C4[C@@H]5C[C@@](C)(C(=O)O)CC[C@]5(C)CC[C@@]4(C)[C@]3(C)CC[C@@H]12` [Glycyrrhizinic acid] it was 1.86 fold; in that of `COC(=O)C1=CO[C@@H](C)[C@H]2Cn3ccc4c5ccccc5nc-4c3C[C@H]12` [Serpentine], 1.33 fold.

For the compound Proanthocyanidin, the “Qdrug/Qctrl (TRIM31 mRNA expression level, drug group divided by control group)” value is recorded as 3.12 fold. As for Cynarascoloside C, the “Qdrug/Qctrl (TRIM31 mRNA expression level, drug group divided by control group)” value is recorded as 2.34 fold.

With `CC(C)=CCc1c(-c2ccc(O)cc2O)oc2c(CC=C(C)C)c(O)cc(O)c2c1=O` [Mulberrin], the “Qdrug/Qctrl (TRIM31 mRNA expression level, drug group divided by control group)” value was 3.74 fold. Still for that read-out and setting: in the case of `C[C@H]1CC[C@@H]2N(C1)C[C@H]1[C@@H]3C[C@H]4[C@@H](C[C@H](O)[C@H]5C[C@@H](O)CC[C@@]54C)[C@@H]3CC[C@@H]1[C@]2(C)O` [Peimine] it was 1.31 fold; in that of Anthocyanidin, 3.68 fold. On the same count and under the same terms, in the case of Breviscapine it was 3.29 fold; in that of `Oc1cc(O)c2c(c1)O[C@H](c1cc(O)c(O)c(O)c1)[C@H](O)C2` [(−)-epigallocatechin], 2.71 fold; in that of Orixine, 1.69 fold.

`Oc1ccc([C@H]2Oc3cc(O)cc(O)c3C[C@@H]2O)cc1` [Afzelechin]: the “Qdrug/Qctrl (TRIM31 mRNA expression level, drug group divided by control group)” value was 3.12 fold. Still for that read-out and setting: in the case of `O=C1C[C@@H](c2ccc(O)cc2)Oc2cc(O)ccc21` [Liquiritigenin] it was 2.79 fold.

Take `C[C@H](CCC(=O)NCCS(=O)(=O)O)[C@H]1CC[C@H]2[C@@H]3[C@H](O)C[C@@H]4C[C@H](O)CC[C@]4(C)[C@H]3CC[C@]12C` [Taurochenodeoxycholic acid]: the “Qdrug/Qctrl (TRIM31 mRNA expression level, drug group divided by control group)” value is 2.51 fold.

As to `COc1cc2c(cc1O)CC[n+]1cc3c(OC)c(OC)ccc3cc1-2` [Jateorhizine], the “Qdrug/Qctrl (TRIM31 mRNA expression level, drug group divided by control group)” value was determined as 1.72 fold. Same read-out and setting: the value for `O=c1cc(-c2ccc(O)c(O)c2)oc2cc(O[C@@H]3O[C@H](CO)[C@@H](O)[C@H](O)[C@H]3O)cc(O)c12` [luteolin 7-O-β-D-glucoside] was 2.83 fold.

The assay is the same for the next values; noted with them: Homo sapiens, L02, read-out: Qdrug/Qctrl (TRIM31 mRNA expression level, drug group divided by control group).
`O=c1cc(-c2ccccc2)oc2cc(O)c(O)c(O)c12` [Baicalein]: the fold induction at 100 µM is 3.53. On the same count and under the same terms, in the case of `CN1Cc2c(ccc3c2OCO3)[C@@H]2[C@H]1c1cc3c(cc1C[C@@H]2O)OCO3` [Chelidonine] it was 1.53.

Turning to `O=C1c2c(O)cc(O)cc2O[C@H](c2ccc(O)c(O)c2)[C@H]1O` [Dihydroquercetin], the fold induction at 100 µM turned out to be 3.32. Same read-out and setting: in the case of `O=c1c(-c2ccc(O)cc2)coc2cc(O)ccc12` [Daidzein] it was 2.66; in that of `COc1cc(/C=C/C(=O)CC(=O)/C=C/c2ccc(O)c(OC)c2)ccc1O` [Curcumin], 2.83; in that of `COc1ccc2cc3[n+](cc2c1OC)CCc1cc2c(cc1-3)OCO2` [Berberine, reference compound], 1.32. Still for that read-out and setting: in the case of `O=c1cc(-c2ccccc2)oc2cc(O)cc(O)c12` [Chrysin] it was 2.89; in that of `CC[C@H]1CN2CC[C@]3(C(=O)Nc4ccccc43)[C@@H]2C[C@@H]1/C(=C\OC)C(=O)OC` [Rhynchophylline], 1.92.

Turning to `O=C1CCC(N2C(=O)c3ccccc3C2=O)C(=O)N1` (centres unmarked) [Thalidomide, reference compound], the fold induction at 100 µM is 1.88. Still for that read-out and setting: the value for `O=C1C[C@@H](c2ccc(O)cc2)Oc2cc(O)cc(O)c21` [Naringenin] was 3.02. The same measure, in the same setting: the value for `Oc1cc(O)c2c(c1)O[C@H](c1ccc(O)c(O)c1)[C@H](O)C2` [Epicatechin] was 2.92; that for `O=C(/C=C/C=C/c1ccc2c(c1)OCO2)N1CCCCC1` [Piperine] was 1.8; that for `O=C(/C=C/c1ccc(O)c(O)c1)O[C@@H]1C[C@](O)(C(=O)O)C[C@@H](O)[C@H]1O` [Chlorogenic acid] was 2.42.

For the compound `CC(C)(S)[C@@H](N)C(=O)O` [Penicillamine, reference compound], the fold induction at 100 µM worked out at 1.72. The same measure, in the same setting: the value for `COc1cc(/C=C/C(=O)O)ccc1O` [Ferulic acid] was 2.51; that for `Oc1ccc(C=Cc2cc(O)cc(O)c2)cc1` [Resveratrol] was 3.66. On the same count and under the same terms, in the case of `COc1cc(C(=O)OCCCCNC(=N)N)cc(OC)c1O` [Leonurine] it was 1.51; in that of `O=c1c(O)c(-c2ccc(O)cc2)oc2cc(O)cc(O)c12` [Kaempferol], 3.26. On to `COc1cc(-c2cc(=O)c3c(O)cc(O)cc3o2)cc(OC)c1O` [Tricin], for which the fold induction at 100 µM was 2.9. Regarding `COC(=O)c1cc(OC)c2c(c1-c1c(C(=O)OC)cc(OC)c3c1OCO3)OCO2` [Bifendate, reference compound], the fold induction at 100 µM was 1.76.

Take `Oc1cc(O)c2cc(O)c(-c3ccc(O)c(O)c3)[o+]c2c1` [Cyanidin]: the fold induction at 100 µM is 2.97.

Still in this assay, the particulars now being: Homo sapiens; 100 μmol/L compound; PA/OA-induced L02 cells; RT-qPCR; read-out: Qdrug/Qctrl (TRIM31 mRNA expression level, drug group divided by control group).
Turning to `O=c1cc(-c2ccc(O)c(O)c2)oc2cc(O)cc(O)c12` [Luteolin], the fold induction at 100 µM was 3.09. Same read-out and setting: in the case of `COc1ccc2cc1Oc1ccc(cc1)C[C@H]1c3cc(c(OC)cc3CCN1C)Oc1c(OC)c(OC)cc3c1[C@H](C2)N(C)CC3` [Tetrandrine] it was 1.56; in that of `O[C@H]1[C@H]2c3cc4c(cc3CN3CCC(=C[C@@H]1O)[C@H]23)OCO4` [Lycorine], 2.26. Same read-out and setting: the value for `COc1c(O)cc(O)c2c(=O)cc(-c3ccccc3)oc12` [Wogonin] was 3.05; that for `C[C@H](CCC(=O)O)[C@H]1CC[C@H]2[C@@H]3[C@H](O)C[C@@H]4C[C@H](O)CC[C@]4(C)[C@H]3CC[C@]12C` [Chenodeoxycholic acid, reference compound] was 2.54; that for `C[C@@H]1O[C@@H](OC[C@H]2O[C@@H](Oc3c(-c4ccc(O)c(O)c4)oc4cc(O)cc(O)c4c3=O)[C@H](O)[C@@H](O)[C@@H]2O)[C@H](O)[C@H](O)[C@H]1O` [Rutin] was 2.86. Turning to `Nc1cccc2c1C(=O)N(C1CCC(=O)NC1=O)C2=O` (centres unmarked) [Pomalidomide, reference compound], the fold induction at 100 µM amounted to 1.49. For the compound `CC1(C)[C@@H](O[C@H]2O[C@H](C(=O)O)[C@@H](O)[C@H](O)[C@H]2O[C@@H]2O[C@H](C(=O)O)[C@@H](O)[C@H](O)[C@H]2O)CC[C@]2(C)[C@H]3C(=O)C=C4[C@@H]5C[C@@](C)(C(=O)O)CC[C@]5(C)CC[C@@]4(C)[C@]3(C)CC[C@@H]12` [Glycyrrhizic Acid Monoammonium Salt], the fold induction at 100 µM amounted to 1.72. Still for that read-out and setting: the value for `O=C(O)[C@H]1O[C@@H](Oc2cc3oc(-c4ccccc4)cc(=O)c3c(O)c2O)[C@H](O)[C@@H](O)[C@@H]1O` [Baicalin] was 2.98; that for `O=C1CCC[C@@H]2[C@H]3CCC[N+]4([O-])CCC[C@@H](CN12)[C@@H]34` (some centres unmarked) [Oxymatrine] was 1.15. The same measure, in the same setting: in the case of `O=c1c(O)c(-c2ccccc2)oc2cc(O)cc(O)c12` [Galangin] it was 2.81; in that of `O=c1c(O)c(-c2ccc(O)c(O)c2)oc2cc(O)cc(O)c12` [Quercetin], 3.38; in that of `O=c1c(O[C@@H]2O[C@@H](CO)[C@H](O)[C@H]2O)c(-c2ccc(O)cc2)oc2cc(O)cc(O)c12` [Juglanin], 2.95. Take `O=c1c(-c2ccc(O)cc2)coc2c([C@@H]3O[C@H](CO)[C@@H](O)[C@H](O)[C@H]3O)c(O)ccc12` [Puerarin]: the fold induction at 100 µM amounted to 2.72. Still for that read-out and setting: the value for `CNC(=O)c1cc(Oc2ccc(NC(=O)Nc3ccc(Cl)c(C(F)(F)F)c3)c(F)c2)ccn1` [Regorafenib, reference compound] was 2.79. As for `COC(=O)c1cc(OC)c2c(c1-c1c(CO)cc(OC)c3c1OCO3)OCO2` [Bicyclol, reference compound], the fold induction at 100 µM worked out at 2.45. The same measure, in the same setting: the value for `O=C(/C=C/c1ccc(O)c(O)c1)O[C@@H]1C[C@@](OC(=O)/C=C/c2ccc(O)c(O)c2)(C(=O)O)C[C@@H](O)[C@@H]1O` [Cynarin] was 2.56; that for `COc1ccc2c(c1O)-c1c(O)c(OC)cc3c1[C@H](C2)[N+](C)(C)CC3` [Magnoflorine] was 1.38; that for `O=c1cc(-c2ccc(O)cc2)oc2cc(O[C@@H]3O[C@H](CO)[C@@H](O)[C@H](O)[C@H]3O[C@@H]3OC[C@](O)(CO)[C@H]3O)cc(O)c12` [Apiin] was 3.22. As for `O=c1c(O)c(-c2ccc(O)cc2O)oc2cc(O)cc(O)c12` [Morin], the fold induction at 100 µM is 2.86. The same measure, in the same setting: in the case of `Oc1ccc(-c2[o+]c3cc(O)cc(O)c3cc2O)cc1` [Pelargonidin] it was 2.78; in that of `C[C@H](CCC(=O)NCCS(=O)(=O)O)[C@H]1CC[C@H]2[C@@H]3[C@@H](O)C[C@@H]4C[C@H](O)CC[C@]4(C)[C@H]3CC[C@]12C` [Tauroursodeoxycholic acid, reference compound], 2.77.
